# Measured values as given in publication PMC6100082, “Pyridine-Ureas as Potential Anticancer Agents: Synthesis and In Vitro Biological Evaluation” (Molecules : A Journal of Synthetic Chemistry and Natural …, 2018).
# Legend:
# Assay type in all cases: cell-based, human
# M14 = test: NCI one-dose SRB assay (Melanoma); details: for Growth Percent: M14, 1.00E-5 Molar
# Method: (§1) The structures of all the newly prepared pyridine-ureas 8a–n were submitted to the National Cancer Institute (NCI) Developmental Therapeutic Program. Eight compounds 8b, 8d, 8e, 8i, 8j and 8l–n were selected to be examined for their in vitro growth inhibitory activity. The anticancer assays were carried out according to the protocol of the Drug Evaluation Branch, NCI, Bethesda. The selected pyridine-ureas were tested at one dose primary anticancer assay against a panel of approximately 58 cancer lines (concentration 10^−5 M). The tested human cancer cell lines emerged from nine different cancer subtypes: leukemia, colon, melanoma, ovarian, lung, CNS, renal, breast and prostate cancers. The sulforhodamine B (SRB) protein assay was adopted to estimate the cell viability and growth. The results were reported as mean-graph of the percentage growth of the treated cells, and presented as percentage growth inhibition (GI%) caused by the test compounds (Table 2).
# (§2) The anticancer assays were performed in accordance with the protocol of the Drug Evaluation Branch, NCI, Bethesda. A 48 h drug exposure protocol was used and sulforhodamine B (SRB) protein assay was applied to estimate the cell viability and growth, as reported earlier.
# LOX IMVI = test: NCI one-dose SRB assay (Melanoma); details: for Growth Percent: 1.00E-5 Molar
# Method: as §1, §2
# UACC-62 = test: NCI one-dose SRB assay (Melanoma); details: for Growth Percent: UACC-62, 1.00E-5 Molar
# Method: as §1, §2
# MALME-3M = test: NCI one-dose SRB assay (Melanoma); details: for Growth Percent: 1.00E-5 Molar
# Method: as §1, §2
# SK-MEL-2 = test: NCI one-dose SRB assay (Melanoma); details: for Growth Percent: SK-MEL-2, 1.00E-5 Molar
# Method: as §1, §2
# SK-MEL-5 = test: NCI one-dose SRB assay (Melanoma); details: for Growth Percent: SK-MEL-5, 1.00E-5 Molar
# Method: as §1, §2
# MDA-MB-435 = test: NCI one-dose SRB assay (Melanoma); details: for Growth Percent: MDA-MB-435, 1.00E-5 Molar
# Method: as §1, §2
# SK-OV-3 = test: NCI one-dose SRB assay (Ovarian Cancer); details: for Growth Percent: SK-OV-3, 1.00E-5 Molar
# Method: as §1, §2
# OVCAR-8 = test: NCI one-dose SRB assay (Ovarian Cancer); details: for Growth Percent: OVCAR-8, 1.00E-5 Molar
# Method: as §1, §2
# OVCAR-5 = test: NCI one-dose SRB assay (Ovarian Cancer); details: for Growth Percent: OVCAR-5, 1.00E-5 Molar
# Method: as §1, §2
# NCI/ADR-RES = test: NCI one-dose SRB assay (Ovarian Cancer); details: for Growth Percent: 1.00E-5 Molar
# Method: as §1, §2
# OVCAR-4 = test: NCI one-dose SRB assay (Ovarian Cancer); details: for Growth Percent: OVCAR-4, 1.00E-5 Molar
# Method: as §1, §2
# IGROV1 = test: NCI one-dose SRB assay (Ovarian Cancer); details: for Growth Percent: IGROV1, 1.00E-5 Molar
# Method: as §1, §2
# OVCAR-3 = test: NCI one-dose SRB assay (Ovarian Cancer); details: for Growth Percent: OVCAR-3, 1.00E-5 Molar
# Method: as §1, §2
# U251 = test: NCI one-dose SRB assay (CNS Cancer); details: for Growth Percent: U251, 1.00E-5 Molar
# Method: as §1, §2
# SF-268 = test: NCI one-dose SRB assay (CNS Cancer); details: for Growth Percent: SF-268, 1.00E-5 Molar
# Method: as §1, §2
# SNB-75 = test: NCI one-dose SRB assay (CNS Cancer); details: for Growth Percent: SNB-75, 1.00E-5 Molar
# Method: as §1, §2
# SNB-19 = test: NCI one-dose SRB assay (CNS Cancer); details: for Growth Percent: SNB-19, 1.00E-5 Molar
# Method: as §1, §2
# SF-539 = test: NCI one-dose SRB assay (CNS Cancer); details: for Growth Percent: SF-539, 1.00E-5 Molar
# Method: as §1, §2
# SF-295 = test: NCI one-dose SRB assay (CNS Cancer); details: for Growth Percent: SF-295, 1.00E-5 Molar
# Method: as §1, §2
# BT-549 = test: NCI one-dose SRB assay (Breast Cancer); details: for Growth Percent: BT-549, 1.00E-5 Molar
# Method: as §1, §2
# MDA-MB-231 = test: NCI one-dose SRB assay (Breast Cancer); details: for Growth Percent: MDA-MB-231/ATCC, 1.00E-5 Molar
# Method: as §1, §2
# HS 578T = test: NCI one-dose SRB assay (Breast Cancer); details: for Growth Percent: 1.00E-5 Molar
# Method: as §1, §2
# MDA-MB-468 = test: NCI one-dose SRB assay (Breast Cancer); details: for Growth Percent: MDA-MB-468, 1.00E-5 Molar
# Method: as §1, §2
# MCF7 = test: NCI one-dose SRB assay (Breast Cancer); details: for Growth Percent: MCF7, 1.00E-5 Molar
# Method: as §1, §2
# T-47D = test: NCI one-dose SRB assay (Breast Cancer); details: for Growth Percent: 1.00E-5 Molar
# Method: as §1, §2
# [1] = Homo sapiens, 10 μM, read-out: Percentage growth inhibition (GI%)
compound,measurement,setting,value
"1-(4-Chloro-4-(trifluoromethyl)cyclohexa-2,5-dien-1-yl)-3-(6-(3,4-dimethoxyphenyl)-2-methylpyridin-3-yl)urea [Compound 8l]",Percentage growth inhibition (GI%),"M14; M14, 10 μM",53%
same,Growth Percent,M14,47.02%
same,Percentage growth inhibition (GI%),LOX IMVI; 10 μM,22%
same,Growth Percent,LOX IMVI,78.57%
same,Percentage growth inhibition (GI%),"UACC-62; UACC-62, 10 μM",23%
same,Growth Percent,UACC-62,77.31%
same,Percentage growth inhibition (GI%),MALME-3M; 10 μM,10%
same,Growth Percent,MALME-3M,90.89%
same,Percentage growth inhibition (GI%),"SK-MEL-2; SK-MEL-2, 10 μM",13%
same,Growth Percent,SK-MEL-2,87.87%
same,Percentage growth inhibition (GI%),"SK-MEL-5; SK-MEL-5, 10 μM",37%
same,Growth Percent,SK-MEL-5,63.85%
same,Percentage growth inhibition (GI%),"MDA-MB-435; MDA-MB-435, 10 μM",23%
same,Growth Percent,MDA-MB-435,77.84%
same,Percentage growth inhibition (GI%),"SK-OV-3; SK-OV-3, 10 μM",16%
same,Growth Percent,SK-OV-3,84.22%
same,Percentage growth inhibition (GI%),"OVCAR-8; OVCAR-8, 10 μM",19%
same,Growth Percent,OVCAR-8,81.32%
same,Percentage growth inhibition (GI%),"OVCAR-5; OVCAR-5, 10 μM",15%
same,Growth Percent,OVCAR-5,85.15%
same,Percentage growth inhibition (GI%),NCI/ADR-RES; 10 μM,31%
same,Growth Percent,NCI/ADR-RES,69.67%
same,Percentage growth inhibition (GI%),"OVCAR-4; OVCAR-4, 10 μM",25%
same,Growth Percent,OVCAR-4,75.13%
same,Percentage growth inhibition (GI%),"IGROV1; IGROV1, 10 μM",17%
same,Growth Percent,IGROV1,83.06%
same,Percentage growth inhibition (GI%),"OVCAR-3; OVCAR-3, 10 μM",43%
same,Growth Percent,OVCAR-3,57.00%
same,Percentage growth inhibition (GI%),"U251; U251, 10 μM",45%
same,Growth Percent,U251,55.26%
same,Percentage growth inhibition (GI%),"SF-268; SF-268, 10 μM",25%
same,Growth Percent,SF-268,75.77%
same,Percentage growth inhibition (GI%),"SNB-75; SNB-75, 10 μM",20%
same,Growth Percent,SNB-75,80.45%
same,Percentage growth inhibition (GI%),"SNB-19; SNB-19, 10 μM",22%
same,Growth Percent,SNB-19,78.75%
same,Percentage growth inhibition (GI%),"SF-539; SF-539, 10 μM",13%
same,Growth Percent,SF-539,87.81%
same,Percentage growth inhibition (GI%),"SF-295; SF-295, 10 μM",29%
same,Growth Percent,SF-295,71.54%
same,Percentage growth inhibition (GI%),"BT-549; BT-549, 10 μM",12%
same,Growth Percent,BT-549,88.97%
same,Percentage growth inhibition (GI%),"MDA-MB-231; MDA-MB-231, 10 μM",12%
same,Growth Percent,MDA-MB-231,88.41%
same,Percentage growth inhibition (GI%),HS 578T; 10 μM,19%
same,Growth Percent,HS 578T,81.01%
same,Percentage growth inhibition (GI%),"MDA-MB-468; MDA-MB-468, 10 μM",52%
same,Growth Percent,MDA-MB-468,48.57%
same,Percentage growth inhibition (GI%),"MCF7; MCF7, 10 μM",42%
same,Growth Percent,MCF7,58.28%
same,Percentage growth inhibition (GI%),T-47D; 10 μM,51%
same,Growth Percent,T-47D,49.20%
"COc1ccc(-c2ccc(NC(=O)Nc3cccc(C(F)(F)F)c3)c(C)n2)cc1 [Compound 8b, 1-(6-(4-Methoxyphenyl)-2-methylpyridin-3-yl)-3-(3-(trifluoromethyl)phenyl) Urea]",inhibition at 10 µM,"M14; Homo sapiens, M14, 10 μM, read-out: Percentage growth inhibition (GI%)",63%
same,Growth Percent,M14,37.25%
same,Growth Percent,LOX IMVI,47.72%
same,inhibition at 10 µM,LOX IMVI; [1],53%
same,inhibition at 10 µM,"UACC-62; Homo sapiens, UACC-62, 10 μM, read-out: Percentage growth inhibition (GI%)",37%
same,Growth Percent,UACC-62,63.91%
same,Growth Percent,MALME-3M,90.58%
same,inhibition at 10 µM,MALME-3M; [1],10%
same,inhibition at 10 µM,"SK-MEL-2; Homo sapiens, SK-MEL-2, 10 μM, read-out: Percentage growth inhibition (GI%)",25%
same,Growth Percent,SK-MEL-2,75.95%
same,inhibition at 10 µM,"SK-MEL-5; Homo sapiens, SK-MEL-5, 10 μM, read-out: Percentage growth inhibition (GI%)",59%
same,Growth Percent,SK-MEL-5,41.63%
same,inhibition at 10 µM,"MDA-MB-435; Homo sapiens, MDA-MB-435, 10 μM, read-out: Percentage growth inhibition (GI%)",31%
same,Growth Percent,MDA-MB-435,69.59%
same,inhibition at 10 µM,"SK-OV-3; Homo sapiens, SK-OV-3, 10 μM, read-out: Percentage growth inhibition (GI%)",18%
same,Growth Percent,SK-OV-3,82.08%
same,inhibition at 10 µM,"OVCAR-8; Homo sapiens, OVCAR-8, 10 μM, read-out: Percentage growth inhibition (GI%)",39%
same,Growth Percent,OVCAR-8,61.89%
same,inhibition at 10 µM,"OVCAR-5; Homo sapiens, OVCAR-5, 10 μM, read-out: Percentage growth inhibition (GI%)",17%
same,Growth Percent,OVCAR-5,83.05%
same,Growth Percent,NCI/ADR-RES,53.15%
same,inhibition at 10 µM,NCI/ADR-RES; [1],47%
same,inhibition at 10 µM,"OVCAR-4; Homo sapiens, OVCAR-4, 10 μM, read-out: Percentage growth inhibition (GI%)",58%
same,Growth Percent,OVCAR-4,42.94%
same,inhibition at 10 µM,"IGROV1; Homo sapiens, IGROV-1, IGROV1, 10 μM, read-out: Percentage growth inhibition (GI%)",< 10%
same,Growth Percent,IGROV1,91.33%
same,inhibition at 10 µM,"OVCAR-3; Homo sapiens, OVCAR-3, 10 μM, read-out: Percentage growth inhibition (GI%)",59%
same,Growth Percent,OVCAR-3,41.93%
same,inhibition at 10 µM,"U251; Homo sapiens, U-251, U251, 10 μM, read-out: Percentage growth inhibition (GI%)",50%
same,Growth Percent,U251,50.16%
same,inhibition at 10 µM,"SF-268; Homo sapiens, SF-268, 10 μM, read-out: Percentage growth inhibition (GI%)",26%
same,Growth Percent,SF-268,74.51%
same,inhibition at 10 µM,"SNB-75; Homo sapiens, SNB-75, 10 μM, read-out: Percentage growth inhibition (GI%)",23%
same,Growth Percent,SNB-75,77.64%
same,inhibition at 10 µM,"SNB-19; Homo sapiens, SNB-19, 10 μM, read-out: Percentage growth inhibition (GI%)",33%
same,Growth Percent,SNB-19,67.81%
same,inhibition at 10 µM,"SF-539; Homo sapiens, SF-539, 10 μM, read-out: Percentage growth inhibition (GI%)",20%
same,Growth Percent,SF-539,80.84%
same,inhibition at 10 µM,"SF-295; Homo sapiens, SF-295, 10 μM, read-out: Percentage growth inhibition (GI%)",53%
same,Growth Percent,SF-295,47.56%
same,Growth Percent,BT-549,66.40%
same,inhibition at 10 µM,"BT-549; Homo sapiens, BT-549, 10 μM, read-out: Percentage growth inhibition (GI%)",34%
same,inhibition at 10 µM,"MDA-MB-231; Homo sapiens, MDA-MB-231, 10 μM, read-out: Percentage growth inhibition (GI%)",32%
same,Growth Percent,MDA-MB-231,68.55%
same,Growth Percent,HS 578T,88.85%
same,inhibition at 10 µM,HS 578T; [1],12%
same,inhibition at 10 µM,"MDA-MB-468; Homo sapiens, MDA-MB-468, 10 μM, read-out: Percentage growth inhibition (GI%)",73%
same,Growth Percent,MDA-MB-468,27.53%
same,inhibition at 10 µM,"MCF7; Homo sapiens, MCF7, 10 μM, read-out: Percentage growth inhibition (GI%)",59%
same,Growth Percent,MCF7,41.47%
same,Growth Percent,T-47D,26.51%
same,inhibition at 10 µM,"T-47D; Homo sapiens, T47D, 10 μM, read-out: Percentage growth inhibition (GI%)",74%
